In ChEMBL document CHEMBL1129001, “From indomethacin to a selective COX-2 inhibitor: Development of indolalkanoic acids as potent and selective cyclooxygenase-2 inhibitors” (Bioorg Med Chem Lett, 1996):

How the values were obtained:
[1] = molecular target: T1, Prostaglandin G/H synthase 2 (Rattus norvegicus, UniProt P35355)
T1 sequence (P35355 whole entry): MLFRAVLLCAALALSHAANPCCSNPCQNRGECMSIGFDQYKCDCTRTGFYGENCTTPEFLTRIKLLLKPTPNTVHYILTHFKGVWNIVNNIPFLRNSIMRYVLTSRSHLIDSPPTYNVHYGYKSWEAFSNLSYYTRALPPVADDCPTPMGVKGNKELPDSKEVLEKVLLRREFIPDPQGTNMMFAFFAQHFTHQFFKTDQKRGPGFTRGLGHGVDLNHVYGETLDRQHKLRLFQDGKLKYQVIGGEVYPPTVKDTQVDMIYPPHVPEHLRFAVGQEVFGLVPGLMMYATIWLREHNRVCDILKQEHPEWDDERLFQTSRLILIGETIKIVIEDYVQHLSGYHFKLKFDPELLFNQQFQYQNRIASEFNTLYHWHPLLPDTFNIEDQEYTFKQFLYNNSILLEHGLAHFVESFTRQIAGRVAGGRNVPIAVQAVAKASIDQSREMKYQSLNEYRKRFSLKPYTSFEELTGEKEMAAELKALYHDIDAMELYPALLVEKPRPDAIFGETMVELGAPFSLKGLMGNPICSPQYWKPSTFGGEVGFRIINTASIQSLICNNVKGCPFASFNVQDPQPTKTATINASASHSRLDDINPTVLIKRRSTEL
Description: Inhibition of Prostaglandin G/H synthase 2

[2] = molecular target: T2, Prostaglandin G/H synthase 1 (Rattus norvegicus, UniProt Q63921)
T2 sequence (Q63921 whole entry): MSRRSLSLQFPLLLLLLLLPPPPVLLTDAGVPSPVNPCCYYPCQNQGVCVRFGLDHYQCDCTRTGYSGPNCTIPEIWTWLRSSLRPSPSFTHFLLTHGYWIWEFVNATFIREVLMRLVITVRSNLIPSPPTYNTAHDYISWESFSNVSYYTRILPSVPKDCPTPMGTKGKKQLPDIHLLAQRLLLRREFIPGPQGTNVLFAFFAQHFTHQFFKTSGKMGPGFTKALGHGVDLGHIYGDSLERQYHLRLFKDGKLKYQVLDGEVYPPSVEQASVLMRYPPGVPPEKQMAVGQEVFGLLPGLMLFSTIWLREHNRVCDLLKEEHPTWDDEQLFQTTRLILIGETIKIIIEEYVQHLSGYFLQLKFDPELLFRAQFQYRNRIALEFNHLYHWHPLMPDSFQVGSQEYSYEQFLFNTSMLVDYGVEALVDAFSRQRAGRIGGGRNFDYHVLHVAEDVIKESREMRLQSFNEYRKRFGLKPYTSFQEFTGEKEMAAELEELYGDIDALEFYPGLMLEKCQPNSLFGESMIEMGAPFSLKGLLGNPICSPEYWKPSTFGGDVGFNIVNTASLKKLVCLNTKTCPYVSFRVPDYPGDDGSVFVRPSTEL
Description: Inhibition of Prostaglandin G/H synthase 1 using whole cell assay

Rattus norvegicus = assay: Compound was evaluated for inhibition of paw edema in rat; format: functional

Row | Compound | IC50 [1] [µM] | IC50 [2] [µM] | ED30 (Rattus norvegicus) [mg/kg]
1 | COc1ccc2c(c1)c(CC(=O)O)c(C)n2C(=O)c1c(Cl)cc(Cl)cc1Cl | 0.5 | > 100 | 1.3
2 | COc1ccc2c(c1)c(CC(C)C(=O)O)c(C)n2Cc1ccc(Br)cc1 (centres undefined) | 0.003 | > 50 | 2.6
3 | COc1ccc2c(c1)c(CCC(=O)O)c(C)n2Cc1ccc(Br)cc1 | 0.003 | > 50 | > 3
4 | COc1ccc2c(c1)c(C(C)C(=O)O)c(C)n2Cc1ccc(Cl)cc1 (centres undefined) | 0.02 | 11 | 3
5 | COc1ccc2c(c1)c(C(C)CC(=O)O)c(C)n2Cc1ccc(Br)cc1 (centres undefined) | 0.004 | > 50 | 0.6
6 | COc1ccc2c(c1)c(CC1(CC(=O)O)CC1)c(C)n2Cc1ccc(Br)cc1 | 0.016 | > 10 | 0.5
7 | COc1ccc2c(c1)c([C@@H](C)[C@@H](C)C(=O)O)c(C)n2Cc1ccc(Br)cc1 | 0.06 | > 50 | 0.6
8 | COc1ccc2c(c1)c(CC(=O)O)c(C)n2Cc1ccc(Br)cc1 | 0.009 | 41 | 0.6
9 | COc1ccc2c(c1)c(CCC(C)C(=O)O)c(C)n2Cc1ccc(Br)cc1 (centres undefined) | 0.004 | > 10 | 1.6
10 | COc1ccc2c(c1)c(CCCC(=O)O)c(C)n2Cc1ccc(Br)cc1 | 0.006 | > 50 | 1.2
11 | COc1ccc2c(c1)c(CC(C)CC(=O)O)c(C)n2Cc1ccc(Br)cc1 (centres undefined) | 0.002 | > 10 | 0.4
12 | COc1ccc2c(c1)c(CC(=O)O)c(C)n2C(=O)c1ccc(Cl)cc1 [INDOMETHACIN] | – | – | 0.9
